# Test results taken from patent US20060035966A1, “Irreversible selective androgen receptor modulators and methods of use thereof” (priority 2002, published 2006).
# Read-outs that look alike come from different tables or passages of the source.
# How the values were obtained:
# [1] = system: CV-1 cells; assay: Induction of apoptosis, CV-1; type: cell-based, African green monkey
# Description: (§1) The ability of DJ 1-31, DJ 1-29, S-NTBA and Compound V to induce apoptosis in different prostate cancer cell lines (DU 145, PC-3, TSU, PPC-1 and LNCaP), in other cancer cell lines (TCCSUP, HT-29 and MCF-7) and in a control cell line (CV-1) was determined and the results are shown in Table 6.
# [2] = system: TCCSUP bladder cancer cell line; assay: Cytotoxicity, SRB assay, TCCSUP; type: cell-based, human; conditions: Homo sapiens, TCC-SUP, read-out: IC50 TCCSUP
# Description: (§2) The SRB Assay was used to determine cell number during cytotoxocity experiments. The following protocol was used: • 1. […] Experimental cultures were cultured in 96-well microtiter plates (200 uL growth medium per well; 1,000-200,000 cells per well). • 3. Cultures were fixed with 50 uL 50% TCA (4° C.). (see cell fixation protocol for details). • 4. Fixed cells were stained with 50 uL 0.4% (wt/vol) SRB in 1% acetic acid for 10 minutes. • 5. SRB was removed and the cultures were quickly* rinsed 5 times with 1% acetic acid to remove unbound dye.** • 6. Cultures were air-dried overnight until there is no visible moisture. • 7. […] Absorbance was read at 540 nm. • * quickly performing rinsing process is to prevent desorption of protein-bound SRB • ** completely remove residual wash solution by sharply flicking plates over sink. Fixation of Cells Attached to the Plastic Substratum
# (§3) The following protocol was used for fixing cells: • a. 50 uL of 50% TCA (4° C.) were gently layered on the top of growth medium in each well to make a final TCA concentration of 10%. • b. Cultures were incubated at 4° C. for 1 hour. • c. Cultures were washed 5 times with tap water to remove TCA, growth medium, low-molecular-weight metabolites, and serum protein. • d. Plates were air-dried until there was no visible moisture.
# [3] = system: MCF-7 breast adenocarcinoma cell line; assay: Cytotoxicity, SRB assay, MCF-7; type: cell-based; conditions: Homo sapiens, Example 4
# Description: (§4) The SRB Assay was used to determine cell number during cytotoxocity experiments. The following protocol was used: • 1. Cells were detached with 0.25% trypsin. • 2. Experimental cultures were cultured in 96-well microtiter plates (200 uL growth medium per well; 1,000-200,000 cells per well). • 3. Cultures were fixed with 50 uL 50% TCA (4° C.). (see cell fixation protocol for details). • 4. Fixed cells were stained with 50 uL 0.4% (wt/vol) SRB in 1% acetic acid for 10 minutes. • 5. SRB was removed and the cultures were quickly* rinsed 5 times with 1% acetic acid to remove unbound dye.** • 6. Cultures were air-dried overnight until there is no visible moisture. • 7. The cellular protein-bound SRB was dissolved with 200 uL unbuffered Tris base (10 mM, pH 10.5) for 30 minutes on a rocking platform shaker. • 8. Absorbance was read at 540 nm. • * quickly performing rinsing process is to prevent desorption of protein-bound SRB • ** completely remove residual wash solution by sharply flicking plates over sink. Fixation of Cells Attached to the Plastic Substratum
# as §3
# [4] = system: HT-29 colorectal adenocarcinoma cell line; assay: Cytotoxicity, SRB assay, HT-29; type: cell-based, human; conditions: Homo sapiens
# Description: as §2, §3
# [5] = system: CV-1 control cell line; assay: Cytotoxicity, SRB assay, CV-1 control; type: cell-based, African green monkey; conditions: Chlorocebus sabaeus, read-out: IC50 CV-1
# Description: as §4, §3
# [6] = system: TSU cells; assay: Induction of apoptosis, TSU; type: cell-based, human
# Description: as §1
# [7] = system: MCF-7 cells; assay: Induction of apoptosis, MCF-7; type: cell-based
# Description: as §1
# [8] = system: LNCaP cells; assay: Induction of apoptosis, LNCaP; type: cell-based, human
# Description: as §1
# [9] = system: HT-29 cells; assay: Induction of apoptosis, HT-29; type: cell-based, human
# Description: as §1
# [10] = system: PPC-1 cells; assay: Induction of apoptosis, PPC-1; type: cell-based, human
# Description: as §1
# [11] = system: PC-3 cells; assay: Induction of apoptosis, PC-3; type: cell-based, human
# Description: as §1
# [12] = system: DU 145 cells; assay: Induction of apoptosis, DU 145; type: cell-based, human
# Description: as §1
# [13] = system: PC-3 bone metastatic prostate cancer cell line; assay: Cytotoxicity, SRB assay, PC-3; type: cell-based, human; conditions: Homo sapiens, read-out: IC50 PC-3
# Description: PPC-1, LNCaP, TSU, PC-3, and DU145 were grown in PRMI-1640 medium containing 2 mM L-glutamine supplemented with 10% fetal bovine serum (FBS). Cells were maintained in a 5% CO2/95% air humidified atomosphere at 37° C.
# as §4, §3
# [14] = system: TSU prostate cancer cell line; assay: Cytotoxicity, SRB assay, TSU; type: cell-based, human; conditions: Homo sapiens, read-out: IC50 TSU
# Description: as §2, §3
# [15] = system: TCCSUP cells; assay: Induction of apoptosis, TCCSUP; type: cell-based, human
# Description: as §1
# [16] = system: DU 145 prostate cancer cell line; assay: Cytotoxicity, SRB assay, DU 145; type: cell-based, human; conditions: Homo sapiens
# Description: as §2, §3
# [17] = system: PPC-1 prostate cancer cell line; assay: Cytotoxicity, SRB assay, PPC-1; type: cell-based, human; conditions: Homo sapiens
# Description: as §2, §3
# [18] = system: AR-expressing LNCaP prostate cancer cell line; assay: Cytotoxicity, SRB assay, LNCaP; type: cell-based, human; conditions: for IC50: Homo sapiens, LNCaP
# Description: as §2, §3
# [19] = MCF7, 24 h, drug incubation time 1 day
# [20] = MCF7, 96 h, drug incubation time 4 day
# [21] = HT-29, 24 h, read-out: IC50 HT-29
# [22] = HT-29, 96 h, read-out: IC50 HT-29
# [23] = DU-145, 24 h, read-out: IC50 DU 145
# [24] = DU-145, 96 h, read-out: IC50 DU 145
# [25] = PPC-1, 24 h, read-out: IC50 PPC-1
# [26] = PPC-1, 96 h, read-out: IC50 PPC-1
Structure (SMILES),Enrichment factor CV-1 [1],IC50 ([2]; 24 h),IC50 ([2]; 96 h),"IC50 [3, 19]","IC50 [3, 20]","IC50 [4, 21]","IC50 [4, 22]",IC50 ([5]; 24 h),IC50 ([5]; 96 h),Enrichment factor TSU [6],Enrichment factor MCF-7 [7],Enrichment factor LNCaP [8],Enrichment factor HT-29 [9],Enrichment factor PPC-1 [10],Enrichment factor PC-3 [11],Enrichment factor DU 145 [12],IC50 ([13]; 24 h),IC50 ([13]; 96 h),IC50 ([14]; 24 h),IC50 ([14]; 96 h),other results
C[C@](O)(COc1ccc(N=C=S)cc1)C(=O)Nc1ccc([N+](=O)[O-])c(C(F)(F)F)c1 [Compound V],6.548,90.4 ± 2.2 µM,78.1 ± 11.2 µM,32.7 ± 1.9 µM,39.4 ± 5.4 µM,85.5 ± 4.5 µM,71 ± 1.2 µM,> 100 µM,> 100 µM,1.167,1.926,2.000,1.410,1.749,2.500,5.071,47.8 ± 4.2 µM,48.5 ± 10.1 µM,54.1 ± 5.5 µM,55 ± 0.8 µM,"IC50 [2]: > 100 µM; IC50 ([4]; HT-29, read-out: IC50 HT-29): 55 ± 1.7 µM; IC50 [13]: 59 ± 6 µM; IC50 [14]: 56.9 ± 2.9 µM; Enrichment factor TCCSUP [15]: 1.176; IC50 [16, 23]: 62.1 ± 0.6 µM; IC50 [16, 24]: 69.7 ± 6.5 µM; IC50 ([16]; DU-145, read-out: IC50 DU145): 74.8 ± 1.2 µM; IC50 [17, 25]: 63.7 ± 4.6 µM; IC50 [17, 26]: 62.6 ± 4.9 µM; IC50 ([17]; PPC-1, read-out: IC50 PPC-1): 58.1 ± 5.9 µM; IC50 ([18]; 24 h, read-out: IC50 LNCaP): 19.8 ± 10.5 µM; IC50 ([18]; 24 h, read-out: IC50 LNCaP 24 hr treatment): 39.6 µM; IC50 ([18]; 96 h, read-out: IC50 LNCaP): 12.8 ± 4.1 µM; IC50 ([18]; 144 h, read-out: IC50 LNCaP 6 day treatment): 33.6 µM; IC50 ([18]; read-out: IC50 LNCaP): 26 ± 8.3 µM; Selectivity for the AR-expressing LNCaP prostate cancer cell line ([18]; compared with prostate cancer cell lines not expressing AR, non-prostate cancer cell lines, control cell line): highly selective"
C[C@](O)(COc1ccc(NC(=O)CBr)cc1)C(=O)Nc1ccc([N+](=O)[O-])c(C(F)(F)F)c1 [DJ 1-29],0.786,2.6 ± 0.4 µM,2.5 ± 0.4 µM,11.9 ± 0.3 µM,12.9 ± 0.7 µM,3.6 ± 0.4 µM,4.4 ± 0.2 µM,6.8 ± 0.5 µM,7.3 ± 0.2 µM,1.008,1.617,16.571,1.667,1.146,0.531,18.643,2.3 ± 0.1 µM,2.4 ± 0.4 µM,1.3 ± 0.1 µM,1 ± 0.1 µM,"Enrichment factor TCCSUP [15]: 0.000; IC50 [16, 23]: 0.4 ± 0.1 µM; IC50 [16, 24]: 0.4 ± 0.1 µM; IC50 [17, 25]: 0.9 ± 0.1 µM; IC50 [17, 26]: 1.3 ± 0.1 µM; IC50 ([18]; 24 h, read-out: IC50 LNCaP): 1.1 ± 0.4 µM; IC50 ([18]; 96 h, read-out: IC50 LNCaP): 1.8 ± 0.2 µM"
C[C@](O)(COc1ccc(NC(=O)CCl)cc1)C(=O)Nc1ccc([N+](=O)[O-])c(C(F)(F)F)c1 [DJ 1-31],0.702,2.1 ± 0.3 µM,2.1 ± 0.3 µM,15.8 ± 2.7 µM,14 ± 1.1 µM,5.4 ± 0.1 µM,3.7 ± 0.7 µM,5.8 ± 0.3 µM,5.3 ± 0.2 µM,0.848,0.938,1.374,1.205,1.312,0.594,2.500,5.4 ± 0.8 µM,5.3 ± 0.8 µM,1.3 ± 0.1 µM,1.1 ± 0.1 µM,"Enrichment factor TCCSUP [15]: 0.471; IC50 [16, 23]: 1 ± 0.2 µM; IC50 [16, 24]: 0.7 ± 0.1 µM; IC50 [17, 25]: 1.9 ± 0.1 µM; IC50 [17, 26]: 1.9 ± 0.1 µM; IC50 ([18]; 24 h, read-out: IC50 LNCaP): 2.9 ± 1.2 µM; IC50 ([18]; 96 h, read-out: IC50 LNCaP): 3.3 ± 0.4 µM"
